“And” between values parts separate entries of the source, which are not always exact repeats. Equal values may be shown once.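 Briefly, cells in 96-well plates were exposed to five compound concentrations for 48 h, and endpoints were estimated by linear interpolation. GI50 marks 50% less growth. At the TGI there is no net growth.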
Tests used:
Test in all cases: inhibition of tumour cell growth, NCI panel, 48 h
[1] = system: HOP-62 NSCLC
[2] = system: MCF7 breast
[3] = system: MDA-MB-231 breast
[4] = system: NCI-H23 lung
[5] = system: NCI-H460 lung
[6] = system: OVCAR-3 ovarian
[7] = system: OVCAR-4 ovarian
[8] = system: RXF 393 renal
[9] = system: SF-268 CNS
[10] = system: SK-MEL-2 melanoma

SMILES	GI50 [1]	TGI [1]	GI50 [2] [µM]	TGI [2] [µM]	GI50 [3] [µM]	TGI [3] [µM]	GI50 [4] [µM]	TGI [4]	GI50 [5]	TGI [5]	GI50 [6]	TGI [6]	GI50 [7]	TGI [7]	GI50 [8]	TGI [8]	GI50 [9] [µM]	TGI [9]	GI50 [10]	TGI [10]
NC(=NCCCCCCN=C(N)/N=C(\N)Nc1ccc(Cl)cc1)/N=C(\N)Nc1ccc(Cl)cc1	1.33 µM	4.06 µM	1.6	5.49	1.42	3.96	1.16	3.59 µM	0.929 µM	1.92 µM	1.45 µM	3.55 µM	1.72 µM	6.46 µM	1.88 µM	8.11 µM	1.48	4.46 µM	1.31 µM	3.18 µM
O=c1cc(-c2ccccc2)oc2ccc(Cl)cc12		> 85.8 µM		> 100		> 31.6		> 100 µM		> 100 µM		> 100 µM		> 96.3 µM		> 91.2 µM		> 85.3 µM		> 100 µM
CC1(C)N=C(N)N=C(N)N1c1ccc(CCCC(=O)Nc2ccc(S(=O)(=O)F)cc2)cc1	40.9 µM	> 100 µM	5.23	> 100	45.7	> 100	8.59	> 100 µM	0.816 µM	> 100 µM	33.6 µM	> 100 µM	> 62.3 µM	> 100 µM	4.22 µM	> 100 µM	6.59	> 100 µM	46.2 µM	> 100 µM
Nc1ncn([C@H]2CC(O)[C@@H](CO)S2)c(=O)n1 (stereo partly specified)	4.63 µM	> 100 µM	0.382	> 100	3.57	> 100	5.34	> 100 µM	0.685 µM	> 100 µM	6.08 µM	> 100 µM	> 100 µM	> 100 µM	11.1 µM	> 100 µM	16.4	> 100 µM	7.05 µM	> 100 µM
CC(C)(Oc1ccc(-c2cccc3ccccc23)cc1)C(=O)O		> 100 µM		> 100		> 100		> 100 µM		> 100 µM		> 100 µM		> 100 µM		> 100 µM		> 100 µM		> 100 µM
N[C@@H]1CCCN(c2c(Br)cnc3[nH]cc(NC(=O)C4CC4)c23)C1	0.646 µM	> 100 µM	0.123	> 100	2.91	77.5	0.234	> 100 µM	0.785 µM	> 100 µM	0.364 µM	> 100 µM	0.341 µM	> 100 µM	0.0618 µM	0.27 µM	3.92	> 100 µM	0.492 µM	> 100 µM
Clc1ccc(C=Nc2ccc(-c3nc4ccccc4[nH]3)cc2)cc1	> 100 µM	> 100 µM	> 100	> 100	> 100	> 100	> 100	> 100 µM	> 100 µM	> 100 µM	> 100 µM	> 100 µM	> 100 µM	> 100 µM	> 100 µM	> 100 µM	58.4	> 100 µM	> 100 µM	> 100 µM
O=c1[nH]c2cc(Cl)ccc2nc1/C(=N\Nc1ccccc1)C(O)c1ccc2c(c1)OCO2 (stereo unspecified)		> 100 µM		> 100		> 100		> 100 µM		> 100 µM		> 100 µM		> 100 µM		> 100 µM		> 100 µM		> 100 µM
Cc1ccc(-c2nc(NCCOCCOCCN)nc(N3CCN(c4ccccn4)CC3)n2)cc1	16.7 µM	31.4 µM	12.7	26.9	14.1	29.8	16.4	32 µM	13.9 µM	29.9 µM	16.9 µM	31.2 µM	14.7 µM	29.3 µM	13 µM	28.2 µM	14.3	29.9 µM	18 µM	35.9 µM
C/C=C/C=C/c1cc2cc3c(c(O)c2c(=O)[nH]1)C1(CC3)C(O)=c2c(=O)c3c(=O)cc(OC)c(=O)c=3c(=O)c2=C1O (stereo unspecified)	0.327 µM and 1.15 µM	4.49 µM and 8.28 µM		0.215		4.15		10.1 µM and 8.27 µM	0.192 µM and 0.985 µM	15.6 µM and 12 µM	0.2 µM and 1.7 µM	1.37 µM and 8.57 µM	0.311 µM and 1.08 µM	11.3 µM and 8.37 µM	0.622 µM and 3.36 µM	3.13 µM and 10.4 µM		17.6 µM and 40.3 µM	0.249 µM and 0.885 µM	14.2 µM and 4.86 µM
CCCCNc1ncnc2c1cnn2-c1ccccc1	3.42 µM	> 100 µM	2.11	> 100	16.9	73	3.34	> 100 µM	1.61 µM	> 43.1 µM	1.46 µM	5.16 µM	18.3 µM	> 100 µM	1.97 µM	8.26 µM	9.78	> 84.5 µM	2.82 µM	> 100 µM
CC(=O)ON(OCc1ccc2ccccc2c1)C(C)=O	> 100 µM	> 100 µM	96.1	> 100	> 100	> 100	> 100	> 100 µM	> 100 µM	> 100 µM	> 100 µM	> 100 µM	> 100 µM	> 100 µM	> 100 µM	> 100 µM	> 100	> 100 µM	> 100 µM	> 100 µM
CNC(=O)CCN1CCN(CC/C=C2\c3ccccc3Sc3ccc(Cl)cc32)CC1	14.6 µM	32.7 µM	4.91	18.9	10.6	24.7	14.4	32.5 µM	7.02 µM	21.6 µM	11.8 µM	27 µM	13.2 µM	28.2 µM	3.55 µM	20.4 µM	9.83	23.9 µM	14.1 µM	32.4 µM
